From PMC4433340 (PLoS Neglected Tropical Diseases, 2015)

Columns and labels:
Format in all cases: cell-based, human
[1] = tested on: E-selectin, ICAM-1 and VCAM-1 expression on T. cruzi-infected EA.hy926 and HUVEC cells; assay: Endothelial cell adhesion molecule surface expression by flow cytometry / immunofluorescence; conditions: EA.hy926
Protocol: Then, cells were infected with trypomastigotes at a MOI of 10 and incubated for 16 hours. Cells were detached with 1X EDTA-PBS at 0.5 mM. The harvested cells were washed with cold PBS and centrifuged at 800 x g for 5 minutes. Then, cells were washed with flow cytometry buffer three times. 100 μL of cell suspensions were incubated for 45 min at 4°C in the dark with mouse monoclonal anti- human E-selectin (5 μL undiluted), ICAM-1(3 μL undiluted), and VCAM-1 (1 μL undiluted) that were conjugated with PE, FITC and APC, respectively (BioLegend, USA). Cell suspensions were analyzed by flow cytometry using a FACSAria-III flow cytometer (BD Biosciences, USA). A homogeneous cell population was selected by size vs. granularity in log scale for these two conditions.
2x10^4 EA.hy926 cells/slide were seeded in Lab-Tek II Chamber Slide^TM (ThermoScientific, USA) and allowed to adhere overnight. […] After 16 hours of infection, cells were fixed in 4% formaldehyde–0.1 M phosphate buffer (pH 7.3) for 10 min. Cells were blocked with 3% bovine serum albumin for 1 hour. Then, cells were incubated with monoclonal antibodies against E-selectin (1:100), VCAM-1 (1:250) and ICAM-1 (1:100) (from Abcam, UK) overnight at 4°C. The samples were washed with PBS and incubated with anti-rabbit IgG that had been conjugated with fluorescein (1:100) from Sigma-Aldrich for 1 h. Finally, nuclei were stained with DAPI for 5 minutes and mounted with Dako Fluorescence Mounting (Dako, USA). The cells were photographed using a Nikon Eclipse 400 fluorescence microscope (Nikon, Japan), and images were analyzed by mean intensity using ImageJ software (ImageJ 1.47v).

[2] = tested on: NF-κB pathway (p-IKK, p-IκB) in T. cruzi-infected EA.hy926 cells; assay: IKK and IκB phosphorylation by Western blot; conditions: exogenous 15-epi-LXA4 for 24 hours before T. cruzi 1 hour
Protocol: 5x10^5 endothelial cells were rinsed once with PBS and scraped. Proteins were extracted into 100 μL RIPA buffer plus a protease and phosphatase inhibitor cocktail (Radio-Immunoprecipitation Assay; Millipore Corporation, USA) at 4°C. Total protein was quantified with the Lowry assay. Samples in loading buffer (10% SDS, 50% glycerol, 0.5 M Tris, 0.1% bromophenol blue, and 1 M dithiothreitol, pH 6.8) were electrophoretically separated by 10% SDS-PAGE and transferred to a nitrocellulose membrane. Nitrocellulose membranes were incubated with blocking solution (5% w/v nonfat dry milk, 0.1% Tween-20 in Tris-buffered saline) at room temperature for 1 hour. Then, the membranes were incubated at 4°C overnight with 1 mL solution of primary antibodies against E-selectin (1:1000) and α-Tubulin (1:10.000) from Sigma-Aldrich, ICAM-1 (1:2000) and VCAM-1 (1:1000) from Abcam, 7 ml solution of p-IKK (1:1000), IKK (1:1000), p-IκB (1:1000) and IκB (1:1000) from Cell signaling (Cell Signaling Technologies, USA). Bound antibodies were detected with horseradish peroxidase-conjugated secondary antibodies and visualized by Lumminata forte (Millipore). The nitrocellulose was stripped between reprobes using Mild stripping (Millipore) for 10 minutes. Developed films were scanned, and band densitometry was analyzed using ImageJ software (ImageJ 1.47v).

[3] = tested on: NF-κB p65 in T. cruzi-infected EA.hy926 cells; assay: Nuclear p65 localization by confocal microscopy; conditions: 100 nM 15-epi-LXA4 before T. cruzi 1 hour
Protocol: 2x10^4 EA.hy926 cells were seeded in Lab-Tek II Chamber Slides^TM for 12 hours. Cells were fixed in 3.7% formaldehyde–0.1 M phosphate buffer (pH 7.3) for 10 min. They were then washed with cytoskeletal buffer followed by permeabilization for 5 min with Triton-X100 0.5%. Cells were blocked with 3% bovine serum albumin for 1 hour. […] The samples were washed with PBS and incubated with anti-rabbit IgG conjugated with fluorescein (1:100) from Sigma-Aldrich for 1 hour. Finally, nuclei were stained with DAPI for 5 minutes and mounted in Dako fluorescence mounting media. The cells were photographed and ten pictures per well were obtained; images were analyzed using ImageJ software (ImageJ 1.47v).

Question: `CC1=C(C)C(=O)C(CCCCC#CCCCC#CCO)=C(C)C1=O` [AA-861, 2-(12-hydroxydodeca-5,10-diynyl)-3,5,6-trimethyl-p-benzoquinone] was tested. Which “ICAM expression in presence of simvastatin plus 5-lipoxygenase inhibitor” value ([1]; 5 μM simvastatin with AA-861 (50 μM) for 24 hours before 16 hours infection) did it give?
Answer: ICAM expression was restored

Question: Which “Endothelial adhesion molecule expression” value ([1]; 1 and 10 nM 15-epi-LXA4 for 24 hours before 16 hours infection) does the source give for `CCCCC[C@@H](O)/C=C/C=C\C=C\C=C\[C@@H](O)[C@@H](O)CCCC(=O)O` [15-epi-LXA4, 15-epi-lipoxin A4] here?
Answer: reduced endothelial adhesion molecule expression

Question: And the IKK-IκB pathway activity [2]?
Answer: decreased IKK-IκB pathway activity in a dose-dependent fashion

Question: And the “Nuclear p65 migration” value [3]?
Answer: decreased nuclear p65 migration
